Assay [1] concerns Staphylococcus aureus. The assay can be described thus: Antibacterial activity against Staphylococcus aureus harboring mutant SPase by CLSI broth microdilution method. In kind it is functional. In general terms: Broth dilution looks for growth in wells or tubes with falling amounts of substance.
Assay [2] relates to Escherichia coli. In words: Antibacterial activity against Escherichia coli harboring mutant SPase by CLSI broth microdilution method. In kind it is functional.
The test system of assay [3] is Escherichia coli. In words: Antibacterial activity against wild type Escherichia coli by CLSI broth microdilution method. In kind it is functional.
In assay [4] the test system is Pseudomonas aeruginosa. The assay can be described thus: Antibacterial activity against Pseudomonas aeruginosa harboring mutant SPase by CLSI broth microdilution method. In kind it is functional.
Assay [5] concerns Staphylococcus aureus. The assay can be described thus: Antibacterial activity against wild type Staphylococcus aureus by CLSI broth microdilution method. The assay is classed as functional.
The subject of a further assay is Streptococcus agalactiae. In words: Antibacterial activity against wild type Streptococcus agalactiae by CLSI broth microdilution method. The assay is classed as functional.
In assay [6] the test system is Staphylococcus epidermidis. In words: Antibacterial activity against Staphylococcus epidermidis harboring mutant SPase by CLSI broth microdilution method. In kind it is functional.
The test system of assay [7] is Streptococcus pneumoniae. The assay can be described thus: Antibacterial activity against wild type Streptococcus pneumoniae by CLSI broth microdilution method. The assay is classed as functional.
Assay [8] concerns Staphylococcus epidermidis. In words: Antibacterial activity against wild type Staphylococcus epidermidis by CLSI broth microdilution method. The assay is classed as functional.
The subject of assay [9] is Pseudomonas aeruginosa. The assay can be described thus: Antibacterial activity against wild type Pseudomonas aeruginosa by CLSI broth microdilution method. The assay is classed as functional.
For assay [10], the system named is Staphylococcus epidermidis. In words: Antibacterial activity against Staphylococcus epidermidis assessed as growth inhibition. The assay is classed as functional.
Assay [11] concerns Pseudomonas aeruginosa. In words: Antibacterial activity against Pseudomonas aeruginosa harboring SPase P84S mutant gene by modified CLSI microbroth dilution method. The assay is classed as functional.
Assay [12] in a line: Binding affinity to Escherichia coli delta 2 to 75 truncated type 1 signal peptidase by fluorescence analysis.
The test system of assay [13] is Staphylococcus epidermidis. In words: Antibacterial activity against Staphylococcus epidermidis harboring SPase with serine residue at position 29 by modified CLSI microbroth dilution method. In kind it is functional.
Assay [14] deals with Staphylococcus aureus. In words: Antibacterial activity against Staphylococcus aureus harboring SPase P29S mutant gene by modified CLSI microbroth dilution method. The assay is classed as functional.
Assay [15] concerns Staphylococcus haemolyticus. In words: Antibacterial activity against Staphylococcus haemolyticus harboring SPase with serine residue at position 29 by modified CLSI microbroth dilution method. The assay is classed as functional.
Assay [16] relates to Streptococcus pneumoniae. In words: Antibacterial activity against Streptococcus pneumoniae harboring SPase with aspargine residue at position 29 by modified CLSI microbroth dilution method. The assay is classed as functional.
The test system of the next assay is Chlamydia trachomatis. The assay can be described thus: Antibacterial activity against Chlamydia trachomatis harboring SPase with leucine residue at position 29 by modified CLSI microbroth dilution method. The assay is classed as functional.
Assay [17] has as its system Staphylococcus aureus. In words: Antibacterial activity against Staphylococcus aureus harboring wild type SPase by modified CLSI microbroth dilution method. In kind it is functional.
Another assay deals with Rhodococcus opacus. In words: Antibacterial activity against Rhodococcus opacus harboring SPase with valine residue at position 29 by modified CLSI microbroth dilution method. The assay is classed as functional.
Assay [18] concerns Escherichia coli. The assay can be described thus: Antibacterial activity against Escherichia coli harboring SPase P84S mutant gene by modified CLSI microbroth dilution method. The assay is classed as functional.
In assay [19] the test system is Pseudomonas aeruginosa. In words: Antibacterial activity against Pseudomonas aeruginosa harboring wild type SPase by modified CLSI microbroth dilution method. In kind it is functional.
In assay [20] the test system is Staphylococcus epidermidis. The assay can be described thus: Antibacterial activity against Staphylococcus epidermidis harboring wild type SPase by modified CLSI microbroth dilution method. The assay is classed as functional.
The test system of a further assay is Helicobacter pylori. In words: Antibacterial activity against Helicobacter pylori harboring SPase with alanine residue at position 29 by modified CLSI microbroth dilution method. The assay is classed as functional.
In assay [21] the test system is Corynebacterium glutamicum. In words: Antibacterial activity against Corynebacterium glutamicum harboring SPase with methionine residue at position 29 by modified CLSI microbroth dilution method. In kind it is functional.
The test system of assay [22] is Escherichia coli. The assay can be described thus: Antibacterial activity against Escherichia coli harboring wild type SPase by modified CLSI microbroth dilution method. The assay is classed as functional.
The test system of another assay is Prescottella equi. The assay can be described thus: Antibacterial activity against Rhodococcus equi harboring SPase with valine or isoleucine residue at position 29 by modified CLSI microbroth dilution method. The assay is classed as functional. Particulars: Rhodococcus (subgen. Prescottella) equi.
Assay [23] deals with Staphylococcus epidermidis. The assay can be described thus: Antibacterial activity against Staphylococcus epidermidis harboring SPase S29P mutant gene by modified CLSI microbroth dilution method. In kind it is functional.
A further assay relates to Lactococcus lactis. In words: Antibacterial activity against Lactococcus lactis harboring SPase with leucine residue at position 29 by modified CLSI microbroth dilution method. In kind it is functional.
The subject of another assay is Streptococcus pyogenes. In words: Antibacterial activity against Streptococcus pyogenes harboring SPase with alanine residue at position 29 by modified CLSI microbroth dilution method. The assay is classed as functional.

Consider four compounds from ChEMBL document CHEMBL3217468 (Medchemcomm, 2012).

Converted amounts (≈) assume the structure as drawn.

Usually MIC stands for the least concentration at which growth counts as inhibited. For `CCCCCCCCCCCCCCCC(=O)N(C)[C@H](CO)C(=O)N[C@H](C)C(=O)NCC(=O)N(C)[C@@H]1C(=O)N[C@@H](C)C(=O)N[C@H](C(=O)O)Cc2cc(c(O)c([N+](=O)[O-])c2)-c2cc1ccc2O`, the MIC in the assay on Staphylococcus aureus [1] is 4 µg/mL (≈ 4.32 µM); with Escherichia coli [2], 2 µg/mL (≈ 2.16 µM); in the assay with Escherichia coli [3], above 64 µg/mL; in the assay with Pseudomonas aeruginosa [4], 8 µg/mL (≈ 8.64 µM); in the assay with Staphylococcus aureus [5], above 64 µg/mL; against Streptococcus agalactiae it was 8 µg/mL (≈ 8.64 µM). For the same compound, the MIC in [6] was 8 µg/mL (≈ 8.64 µM); against Streptococcus pneumoniae [7], 16 µg/mL (≈ 17.3 µM); in assay [8], 0.25 µg/mL (≈ 0.27 µM); against Pseudomonas aeruginosa [9], above 64 µg/mL.
As to `CCCCCCCCCCCCCCCC(=O)N(C)[C@H](CO)C(=O)N[C@H](C)C(=O)NCC(=O)N(C)[C@@H]1C(=O)N[C@@H](C)C(=O)N[C@H](C(=O)O)Cc2ccc(O)c(c2)-c2cc1ccc2O[C@@H]1O[C@@H](C)[C@H](O)[C@@H](O)[C@H]1O`, the MIC in the assay on Staphylococcus aureus [1] is 4 µg/mL (≈ 3.89 µM); with Escherichia coli [2], 2 µg/mL (≈ 1.95 µM); against Escherichia coli [3] it was above 64 µg/mL; against Pseudomonas aeruginosa [4], 16 µg/mL (≈ 15.6 µM); in the assay on Staphylococcus aureus [5] it was above 64 µg/mL; against Streptococcus agalactiae, above 64 µg/mL. The MIC in [6] is 8 µg/mL (≈ 7.79 µM); with Streptococcus pneumoniae [7], 8 µg/mL (≈ 7.79 µM); in [8] it was 0.25 µg/mL (≈ 0.243 µM); against Pseudomonas aeruginosa [9], above 64 µg/mL.
On to `CC(C)CCCCCCCCC(=O)N(C)[C@H](CO)C(=O)N[C@H](C)C(=O)NCC(=O)N(C)[C@@H]1C(=O)N[C@@H](C)C(=O)N[C@H](C(=O)O)Cc2ccc(O)c(c2)-c2cc1ccc2O` [ARYLOMYCIN A2], for which the MIC in assay [10] is 0.5 µg/mL (≈ 0.606 µM).
In general, Kd refers to the equilibrium constant for the complex coming apart. For `CCCCCCCCCCCCCCCC(=O)N(C)[C@H](CO)C(=O)N[C@H](C)C(=O)NCC(=O)N(C)[C@@H]1C(=O)N[C@@H](C)C(=O)N[C@H](C(=O)O)Cc2ccc(O)c(c2)-c2cc1ccc2O` [ARYLOMYCIN C16], the MIC against Staphylococcus aureus [1] was 4 µg/mL (≈ 4.54 µM); in the assay on Pseudomonas aeruginosa [11], 8 µg/mL (≈ 9.08 µM); in the assay with Escherichia coli [2], 2 µg/mL (≈ 2.27 µM); in assay [13] it was 0.25 µg/mL (≈ 0.284 µM); in the assay on Escherichia coli [3] it was above 64 µg/mL; in the assay on Staphylococcus aureus [14] it was 2 µg/mL (≈ 2.27 µM). In addition, the MIC against Pseudomonas aeruginosa [4] is 8 µg/mL (≈ 9.08 µM); in assay [15], 2 µg/mL (≈ 2.27 µM); against Staphylococcus aureus [5], above 64 µg/mL; in the assay on Streptococcus pneumoniae [16], 16 µg/mL (≈ 18.2 µM); against Streptococcus agalactiae, above 64 µg/mL; against Chlamydia trachomatis it was 6 µg/mL (≈ 6.81 µM). In addition, the MIC in the assay on Staphylococcus aureus [17] is above 128 µg/mL; in the assay with Rhodococcus opacus it was 2 µg/mL (≈ 2.27 µM); in the assay on Escherichia coli [18] it was 4 µg/mL (≈ 4.54 µM); against Pseudomonas aeruginosa [19] it was above 128 µg/mL; in [6], 8 µg/mL (≈ 9.08 µM); against Streptococcus pneumoniae [7], 8 µg/mL (≈ 9.08 µM). Further, the MIC is 0.25 µg/mL (≈ 0.284 µM) in [20]; 4 µg/mL (≈ 4.54 µM) against Helicobacter pylori; 2 µg/mL (≈ 2.27 µM) in assay [21]; above 128 µg/mL in the assay on Escherichia coli [22]; 16 µg/mL (≈ 18.2 µM) with Prescottella equi; 0.5 µg/mL (≈ 0.567 µM) in assay [10]. Also, the minimum inhibitory concentration (MIC) in assay [23] was 8 µg/mL (≈ 9.08 µM); in assay [8] it was 0.25 µg/mL (≈ 0.284 µM); against Lactococcus lactis, above 128 µg/mL; in the assay on Streptococcus pyogenes, 16 µg/mL (≈ 18.2 µM); against Pseudomonas aeruginosa [9] it was above 64 µg/mL. Also, binding in assay [12] was put at a Kd of 979 nM.
